Read-outs that look alike come from different tables or passages of the source.
Assays:
[1] = target: mouse small intestinal UPase enzyme (Mus musculus, UniProt P52624); assay: UPase inhibition in mouse small intestinal tissue homogenate (HPLC of uracil); format: biochemical
Method: A range of TK-112690 doses were studied for the their ability to prevent metabolic breakdown of uridine through the in vitro inhibition of mouse and human small intestinal UPase enzyme. UPase activity was determined by HPLC analysis using UV detection of uracil concentration (UPase catabolizes uridine into uracil and ribose-1-phosphate). The UPase enzyme material was prepared from homogenized mouse and human being small intestinal tissue. TK-112690 was dissolved in water (50 mg/ml) and analyzed for UPase inhibition in aqueous solution containing 5 mM uridine, 0.01 M Tris, 0.01 M phosphate, 1 mM EDTA, and 1 mM DTT. Reactions were performed at 37° C. at pH of 7.3.
The aim of this study was to evaluate TK-112690 […] as an inhibitor of uridine phosphorylase (UPase) enzyme activity. The range of TK-112690 doses studied for ability to prevent metabolic breakdown of uridine, through the in vitro inhibition of mouse and human small intestinal UPase enzyme, was 0, 0.1, 0.5, 1, 5, 10, 50, 100, 500, 1000, 5000 and 10000 μM). Detection of UPase activity was determined by HPLC analysis using UV detection of uracil concentration (UPase catabolizes uridine into uracil and ribose-1-phosphate).
The UPase enzyme material was prepared from homogenized mouse and human being small intestinal tissue. TK-112690 was dissolved in water (50 mg/ml) and analyzed for UPase inhibition in aqueous solution containing 5 mM uridine, 0.01 M Tris, 0.01 M phosphate, 1 mM EDTA, and 1 mM DTT. Reactions were performed at 37° C. at pH of 7.3.
TK-11260 inhibition of mouse and human UPase was analyzed by reverse phase HPLC using UV detection. HPLC analysis was performed at ambient temperature with a Water 2695 Alliance system equipped with a C18 ECONOSIL 5 U ALLtech column. 20 μl of UPase reaction samples were auto-injected onto column. Mobile phase consisted of water eluting for first 2.5 ml and acetonitrile gradient to 100% in 12.5 ml (flow rate 0.5 ml/min). The outlet fluent was monitored by UV absorption in the range of 240-320 nm. UPase enzymatic activity was based on the AUC of the uracil peaks.

[2] = tested on: CCRF-CEM cells; assay: Cell Culture Study I: MTX cytotoxicity, alamarBlue; format: cell-based, human; details: 72 hours
Method: In this study, CCRF-CEM cells purchased from ATCC were cultured and then 12 tubes containing approximately 10^6 cells each treated for 72 hours with media (Group1), MTX 0.03 μM (Group2), MTX+Leucovorin 1 μM (Group3), MTX+Leucovorin 10 μM (Group4), MTX+Leucovorin 100 μM (Group5), MTX+TK-112690 1 μM (Group6), MTX+TK-112690 10 μM (Group7) and MTX+TK-112690 100 μM (Group8). […] Viability was measured as percent reduction of alamarBlue absorbance.
The tumor cell line CCR-CEM (human T-cell acute lymphoblastic leukemia) is obtained from American Type Culture Collection (CRL-1593.2) and cultured in accordance with the product information sheet with the following exceptions: 55.3 cm^2 Petri dishes are used instead of 75 cm^2 culture flasks, and 1% penicillin-streptomycin solution (HyClone SV30010) and 1% GlutaMAX™ (Gibco 35050) are added to the culture medium.
TK-112690, the representative 2,2′-anhydropyrimidine test article, is dissolved in 40% DMSO, sterile filtered then diluted with sterile distilled water to obtain initial working solutions of 10, 100 and 1000 μM. In testing, a 100 fold dilution is made in culture media to give final assay concentrations of 0.1, 1.0 and 10.0 μM. MTX (SAFC Biosciences M8407) is dissolved in sterile distilled water and 5 N NaOH then sterile filtered. The final pH of the stock solution is 7.8 and working solutions are made with sterile distilled water for final assay concentrations of 30, 3.0, 0.3, 0.03 and 0.003 μM. Leucovorin (Sigma F-7878) is dissolved in sterile distilled water, sterile filtered and diluted with sterile distilled water for final assay concentrations of 0.1, 1.0 and 10.0 μM.
Aliquots of 100 μL of cell suspension are plated in 96 well microtiter plates (Corning costar 3595) and placed in an atmosphere of 5% CO2 at 37° C. (Fisher Scientific Isotemp 3500 CO2 Incubator). After 24 hours, 100 μL of growth medium [RPMI-1640 w/L-glutamine (Cambrex 12-702Q) fortified with sodium pyruvate (HyClone SH30239.01), fetal bovine serum (SAFC Biosciences 12107C) and HEPES buffer (Gibco 15630)] and 2 μL of test solution or vehicle are added respectively per well and the plates incubated for an additional 72 hour incubation. MTX is evaluated at concentrations of 0.003, 0.03, 0.30 and 3.0 μM alone or in combination with either a 2,2′-anhydropyrimidine test article or Leucovorin at concentrations of 0.1, 1.0, 10.0 μM. At the end of incubation, the efficacy of anti-cell proliferation is determined by optical absorbance at λ=570 and 600 nm [Spectramax 250 (Molecular Devices)] in accordance with the standard alamarBlue™ (Biosource) protocol.
Group 1 is the cell control (media treated). Group 2 corresponds to cells treated with 0.03 μM MTX. Group 3 are cells treated with 1.0 μM Leucovorin. Group 4 are cells treated with 0.1 μM Leucovorin. Group 5 are cells treated with 10 μM TK-112690. Group 6 are cells treated with MTX+10 μM TK-112690. Group 7 are cells treated with MTX+1.0 μM TK-112690. Group 8 MTX+0.1 μM TK-112690.

[3] = tested on: Drosophila melanogaster; assay: Fly Study I: protection from MTX-induced lethality; format: in vivo; details: with MTX 0.4 mg; TK-112690 0.005 to 0.1 mg
Method: In this study, Drosophila melanogaster eggs (50 eggs per vial) were treated with either 0.005 mg TK-112690+0.4 mg MTX (Group 1), 0.01 mg TK-112690+0.4 mg MTX (Group 2), 0.04 mg TK-112690+0.4 mg MTX (Group 3), 0.1 mg TK-112690+0.4 mg MTX (Group 4), 0.4 mg MTX alone (Group 5) or saline blank (Group 6). Two vials of eggs for each dose group were evaluated for viability (viable flies plus pupae).
The efficacy of cancer chemotherapy can be improved if agents are available to reduce the adverse events associated with treatment with cytotoxic agents. To this end, Drosophila melanogaster (commonly know as the fruit fly) is an ideal organism to screen chemical compounds for such side-effect-reducing agents. This study is aimed at finding a dose of a 2,2′-anhydropyrimidine test article that protects against MTX-induced lethality in insects.
Increasing amounts of a 2,2′-anhydropyrimidine test article (typically 0.03 to 0.1 mg) are mixed in an aqueous solution with 0.3 (or 0.4) mg MTX. Four milliliters (mL) of a 2,2′-anhydropyrimidine test article+MTX solutions are added to an appropriate amount of instant fly medium. Fruit fly eggs are added to a 2,2′-anhydropyrimidine test article+MTX treated medium and incubated for up to 31 days. After the 31 day incubation, each assay is scored by the number of mature fly and pupae per vial.
The assays are set up in clear sterile polystyrene narrow diameter vials from Applied Scientific (Hampton, N.H.). Vials are stored in trays and incubated in a darkened 25° C. incubator.
Reagents and materials used are: 50 mg/mL MTX in H2O (pH 8), 20 mg/mL of the 2,2′-anhydropyrimidine test article in H2O, water, sterile polystyrene narrow diameter vials from Applied Scientific, Instant Drosophila Food Medium, Oregon-R Drosophila melanogaster, 25° C. incubator, and 15 mL polystyrene conical tubes
Each assay is performed in a separate fly vial. […] Pre-measured amounts of instant drosophila medium are added to each assay to achieve optimal hydration level. […] Assays are scored by the number of dead pupae or adult flies per vial.

[4] = Table 3, murine UPase, test method of Experiment IX, read-out: UPase IC50

Chain of mouse small intestinal UPase enzyme (P52624 whole entry, looked up): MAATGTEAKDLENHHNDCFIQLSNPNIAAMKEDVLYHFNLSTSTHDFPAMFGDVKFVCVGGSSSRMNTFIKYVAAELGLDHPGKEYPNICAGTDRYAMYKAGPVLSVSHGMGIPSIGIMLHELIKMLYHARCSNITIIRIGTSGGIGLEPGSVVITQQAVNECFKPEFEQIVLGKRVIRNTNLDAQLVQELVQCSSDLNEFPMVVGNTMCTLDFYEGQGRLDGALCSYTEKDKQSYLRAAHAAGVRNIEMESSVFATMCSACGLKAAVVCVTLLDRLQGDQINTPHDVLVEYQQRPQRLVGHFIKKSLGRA

SMILES | IC50 [1, 4] | other results
Cc1cn2c(nc1=O)O[C@H]1[C@H](O)[C@@H](CN=[N+]=[N-])O[C@H]12 [TK-000011] | > 100 µM | 
O=c1nc2n(cc1COCc1ccccc1)[C@@H]1O[C@H](CO)[C@@H](O)[C@@H]1O2 [TK-000008] | < 100 µM | 
Cc1cn2c(nc1=O)O[C@H]1C(O)[C@@H](CF)O[C@H]12 (some centres unmarked) [TK-000015] | > 100 µM | 
CCOCc1cn2c(nc1=O)O[C@H]1[C@H](O)[C@@H](CO)O[C@H]12 [TK-000007] | < 100 µM | 
O=c1nc2n(cc1NCc1ccccc1)[C@@H]1O[C@H](CO)[C@@H](O)[C@@H]1O2 [TK-000006] | < 100 µM | 
CC(=N)OCc1cn2c(nc1=O)O[C@H]1[C@H](O)[C@@H](CO)O[C@H]12 [TK-000010] | > 100 µM | 
Nc1nc2c(c(=O)[nH]1)N(C=O)C(CNc1ccc(C(=O)N[C@@H](CCC(=O)O)C(=O)O)cc1)CN2 (some centres unmarked) [Leucovorin] |  | effect on MTX cytotoxicity (viability, alamarBlue) ([2]; combined with MTX 0.03 μM): statistically different than Group 2; viability, agent alone vs control ([2]; without MTX): not statistically different than control
Cc1ccc(SCc2cn3c(nc2=O)O[C@H]2C(O)[C@@H](CO)O[C@H]23)cc1 (some centres unmarked) [TK-000016] |  | IC50 ([1]; 5 mM uridine, 37° C., pH 7.3, read-out: IC50, mouse small intestinal (murine) UPase): < 100 µM
COCc1cn2c(nc1=O)O[C@H]1[C@H](O)[C@@H](CO)O[C@H]12 [TK-000009] | < 100 µM | protection against MTX-induced lethality in the Fly model [3]: active

Source: patent USRE48253E1, “Methotrexate adjuvants to reduce toxicity and methods for using the same” (Tosk, Inc., priority 2008, dated 2020)
